Columns and labels:
Assay type in all cases: in vivo
stable flies = assay: Stable fly probing on treated warmed blood-filled membranes; conditions: for Probes at 7% test compound: 7% in isopropyl alcohol on membrane; for Probes at 7% test compound / Probes at 15% test compound: twenty minutes, percent of control probes taken as 100%; for Probes at 15% test compound: 15% in isopropyl alcohol on membrane; for repellency compared with DEET: at the same concentrations (7% and 15%)
Protocol: Five replicates of 100 mixed-sex stable flies each were placed in screened cages. The cages were placed in such a way that the stable flies had access to five warmed, blood-filled membrane walls. The membranes were treated with methyl dihydrojasmonate, gamma-dodecalactone, methyl apritone, or DEET® all at 7% and at 15% in isopropyl alcohol, or isopropyl alcohol as a control. There were five replicates tested with a positional rotation of the repellent at each replicate. Fresh batches of stable flies were used for each replicate. Thus each test sample was tested on each of the five wells, which allowed any positional bias to be eliminated. The number of stable flies probing each well was recorded at two minute intervals for twenty minutes. The total number of probes on each well were tallied at the end of the twenty minute observation period and the average percentage repellency was calculated for each compound. An analysis of variance was conducted to compare the average number of probes on each treatment membrane. The number of probes for the control was taken as the 100% baseline and the percentage for the test compounds is the percent for the number of probes for the test compound compared to the number of control probes.

[1] = tested on: Brown Dog Ticks, Rhipicephalus sanguineus; conditions: in vivo
Excerpt: The following protocol was employed to test compounds of this invention for toxicity (mortality) against ticks. There were 5 replicates of 5 dog ticks for each treatment. […] Filter paper strips were laid on a sheet of aluminum foil and enough of each of the test sample was applied to thoroughly saturate the paper. The paper was then rolled and placed inside a glass shell vial as to line the sides of the vial. A small paper disc, also saturated with the test sample, was then placed at the bottom of the vial. Brown Dog Ticks, Rhipicephalus sanguineus, were then introduced into the vials which were covered with aluminum foil, the inside of which was painted with some of the test sample. The ticks remained in the vials, constantly exposed to the test samples, for the duration of the test. A small hole was poked through the foil for ventilation. Each control replicate was subjected to the same procedures outlined above, except that they were not treated. The controls were placed in the same area as the test replicates for the duration of the test. Mortality observations were made at 24 hours. Ticks were classified as alive (able to move normally), moribund (those classified as moribund will show some movement, but will not be able to crawl in a coordinated manner, or will be unable to right themselves if placed on their backs), or dead (no movement after physical stimuli). All dead ticks were confirmed by probing or agitation to make sure that they are unable to move; any that show movement visible to the naked eye were recorded as moribund. At 24 hours the tick mortality was 0% for the control, 100% for γ-dodecalactone, 100% for methyl apritone and 76% for methyl dihydrojasmonate.

German cockroaches = assay: German cockroach repellency, choice of food stations in arena; conditions: 50% in acetone; at 4 hours
Protocol: The efficacy of compounds of this invention to control or repel German cockroaches was illustrated using the following protocol. One food pellet each was placed on a paper square (station) treated with one of the repellent materials. Materials were diluted to 50% in acetone and a straight acetone station was also used. Both stations were placed on the same side of the arena. Cockroaches were starved for 2 days and then released into the arena. They were given a choice to feed on either food pellet. A control arena with an acetone treated station and an untreated station was also used. The distribution of cockroaches within the arena was recorded at 30 minute intervals over 4 hours. Repellency at 4 hours was calculated by the number of cockroaches on the untreated station vs. the total number of cockroaches on the stations.

Black Widow spiders = assay: Black Widow spider choice test in half-treated tube shelters; conditions: 5% in isopropanol; location after 24 hours
Protocol: Control against Black Widow spiders was determined using the following protocol. One test container containing two card stock tube shelters, one half treated with a test sample and the other half treated with isopropanol was prepared. A spider was introduced in the center of the tube. The spider was then given a choice to move to one end of the shelters. The following day, its location is recorded and compared to the results from a shelter containing untreated half-shelters.
On the day of the test one of the two shelters was sprayed with the test sample solution using a 2 oz pump spray bottle. Only the surfaces that the spider will most likely contact were treated. Therefore, only the inside of one of the shelter tubes, including the end disc (spiders will not be able to access the outside part of the shelter) were sprayed. The total amount of product was weighed and recorded. The treated surface was allowed to dry for a minimum of ½ hour, or until solvent could not be detected by smell. At this time the shelter tubes were assembled.
Card stock paper tube shelters were constructed from 2 half-letter sized sheets (5½″×8½″) of paper, rolled and taped together to form a short tube. One end of each was covered with a circle of card stock paper, while the other end was later taped to the open end of the other half sheet, forming one long tube. […] The solvent-treated half was labeled with a “C” on the inner and outer walls with a pencil or a pen with solvent resistant ink. Prior to forming the final tube shelter, a semi-circular hole was cut into one of the margins of each sheet such that, once the two tubes are taped together, the holes correspond to the top and at the junction of the tubes for introduction of the spiders.
Twenty-five arenas were prepared in this manner for each test sample. There were five replicates of five spiders. Twenty-five additional control arenas were also prepared. They were prepared the same way, except that areas to be sprayed were sprayed with isopropanol only.
Replicates of five spiders were selected for each test formulation and for the control. The specimens were visually examined for overall physical condition. […] The spiders were transferred directly into the holding vials using flexible forceps or with a little coaxing with an artist brush. Because of their cannibalistic tendencies, each vial contained only one spider. There they were held until the time for testing.
At the test start the spiders were placed directly in the middle, through the opening at the top of the shelter tube, and the opening covered, with only one spider per arena. […] They were left alone for 24 hours, after which time their location within the arena was recorded. Spiders present inside the shelter treated with the test repellent were considered tolerant.

Question: Which results are given for `CCC(C)=CCCC(C)=CCC1CCCC1=O` (centres unmarked) [Methyl apritone, methyl apritone]?
Answer: Probes at 7% test compound (stable flies): 28.8%; Probes at 15% test compound (stable flies): 7.4%; repellency compared with DEET (stable flies): repelled better than DEET®; 24 hr mortality (%) [1]: 100%; tick mortality at 24 hours [1]: 100%; % Repellency 4 hr (German cockroaches): 100%; % Repellency (Black Widow spiders): 37.5%

Question: How did the “Probes at 7% test compound” value (stable flies) turn out when `CCCCCC1C(=O)CCC1CC(=O)OC` (centres unmarked) [Methyl dihydrojasmonate, methyl dihydrojasmonate] was run?
Answer: Its value is 4.5%.

Question: And the “Probes at 15% test compound” value (stable flies)?
Answer: Its value is 3.2%.

Question: And the “repellency compared with DEET” value (stable flies)?
Answer: The value was “repelled better than DEET®”.

Question: And the “24 hr mortality (%)” value [1]?
Answer: Its value is 76%.

Question: And the “tick mortality at 24 hours” value [1]?
Answer: The value was 76%.

Question: And the “% Repellency 4 hr” value (German cockroaches)?
Answer: The value was 72.2%.

Question: And the “% Repellency” value (Black Widow spiders)?
Answer: The value was 87.5%.
